Measured values reported in ChEMBL document CHEMBL1157815, “Antiproliferative activity of withanolides against human breast cancer cell lines” (2010).

What was measured:
Format in all cases: functional
MCF7 = assay: Antiproliferative activity against human MCF7 cells expressing estrogen receptor after 48 hrs by SRB assay; details: MCF7, 48 h
MDA-MB-231 = assay: Antiproliferative activity against estrogen receptor deficient human MDA-MB-231 cells after 48 hrs by SRB assay; details: MDA-MB-231, 48 h
SK-BR-3 = assay: Antiproliferative activity against estrogen receptor deficient human SKBR3 cells after 48 hrs by SRB assay; details: SK-BR-3, 48 h
[1] = Antiproliferative activity against human MCF7/BUS cells expressing estrogen receptor after 48 hrs by SRB assay
T47D = assay: Antiproliferative activity against human T47D cells expressing estrogen receptor after 48 hrs by SRB assay

| SMILES | GI50 (MCF7) | GI50 (MDA-MB-231) | GI50 (SK-BR-3) | GI50 [1] | GI50 (T47D) |
| --- | --- | --- | --- | --- | --- |
| CCO[C@@]12C[C@H]3[C@@H](C[C@@H](O)[C@@]4(Cl)CC=CC(=O)[C@]34C)[C@@H]3CC[C@@](O)([C@H](C)[C@@H]([C@@H]4O[C@H](O)[C@@]5(C)O[C@@]45C)O1)[C@]32C | 3.9 µM | 10 µM | 3.4 µM | 5.1 µM | 13 µM |
| CO[C@@]12C[C@@H]3c4c(O)cccc4[C@H](O)C[C@H]3[C@@H]3CC[C@@](O)([C@H](C)[C@@H]([C@@H]4OC(=O)C(C)=C4C)O1)[C@]32C | > 100 µM | > 100 µM | > 100 µM | > 100 µM | > 100 µM |
| CC1=C(C)C(=O)O[C@@H]([C@](C)(O)[C@]2(O)CC[C@@]3(O)[C@@H]4C[C@H]5O[C@]56[C@@H](O)C=CC(=O)[C@]6(C)[C@H]4CC[C@]23C)C1 | 1 µM | 2.1 µM | 1.7 µM | 1.1 µM | 2.2 µM |
| CCO[C@@]12C[C@H]3[C@@H](C[C@@H](O)[C@@]4(Cl)CC=CC(=O)[C@]34C)[C@@H]3CC[C@@](O)([C@H](C)[C@@H]([C@@H]4OC(=O)C(C)=C4C)O1)[C@]32C [12-O-ETHYLJABOROSALACTONE 42] | 3 µM | 3.7 µM | 2.5 µM | 3 µM | 3.9 µM |
| CO[C@@]12C[C@H]3[C@@H](C[C@H]4O[C@]45CC=CC(=O)[C@]35C)[C@@H]3CC[C@@](O)([C@@H]([C@H]4CC(C)=C(C)C(=O)O4)CO1)[C@]32C [12-O-METHYLJABOROSALACTONE 38] | 2.9 µM | 2.8 µM | 2 µM | 2.7 µM | 3.9 µM |
| CC[C@@]1(O)C(=O)OCc2c1cc1n(c2=O)Cc2cc3ccccc3nc2-1 [CAMPTOTHECIN] | 0.28 µM | 1.3 µM | 0.15 µM | 0.21 µM | 2 µM |
| O=c1[nH]cc(F)c(=O)[nH]1 [FLUOROURACIL] | 8.3 µM | 54 µM | 3 µM | 6.2 µM | 47 µM |
| C[C@]12CC[C@H]3C(=C1[C@H]1C[C@@]2(O)[C@](C)([C@H]2C[C@]4(C)O[C@]4(C)[C@H](O)O2)C1)C[C@@H](O)[C@@]1(O)CC=CC(=O)[C@]31C [JABOROSALACTOL20] | > 100 µM | > 100 µM | > 100 µM | > 100 µM | > 100 µM |
| C[C@@H]1[C@@H]([C@@H]2O[C@H](O)[C@@]3(C)O[C@@]23C)O[C@@]2(O)C[C@H]3[C@@H](C[C@H]4O[C@]45CC=CC(=O)[C@]35C)[C@@H]3CC[C@]1(O)[C@]32C [JABOROSALACTOL 24] | 3.6 µM | 8.7 µM | 2.3 µM | 2.6 µM | 6.5 µM |
| C[C@@H]1[C@@H]([C@@H]2O[C@H](O)[C@@]3(C)O[C@@]23C)O[C@@]2(O)C[C@H]3[C@@H](CC=C4CC=CC(=O)[C@@]43C)[C@@H]3CC[C@]1(O)[C@]32C [JABOROSALACTOL] | 14 µM | 19 µM | 18 µM | 18 µM | 30 µM |
| CC1=C(C)[C@]2(OC1=O)C(=O)C(C)=C1CC[C@H]3[C@@H]4C[C@H]5O[C@]56CC=CC(=O)[C@]6(C)[C@H]4C[C@@]2(O)[C@]13C [JABOROSALACTONE 1] | 3.2 µM | 2.5 µM | 2 µM | 3.3 µM | 3.4 µM |
| CC1=C(C)C(=O)O[C@@H]([C@H]2CO[C@@]3(O)C[C@H]4[C@@H](C[C@H]5O[C@]56CCCC(=O)[C@]46C)[C@@H]4CC[C@]2(O)[C@]43C)C1 [JABOROSALACTONE 39] | 25 µM | 35 µM | 34 µM | 29 µM | 38 µM |
| CC1=C(C)[C@H]([C@H]2O[C@@]3(O)C[C@H]4[C@@H](C[C@@H](O)[C@@]5(Cl)CC=CC(=O)[C@]45C)[C@@H]4CC[C@@](O)([C@@H]2C)[C@]43C)OC1=O [JABOROSALACTONE 42] | 2.4 µM | 3.2 µM | 2.5 µM | 2.6 µM | 3.5 µM |
| CC1=C(C)[C@H]([C@H]2O[C@@]3(O)C[C@@H]4c5c(O)cccc5[C@H](O)C[C@H]4[C@@H]4CC[C@@](O)([C@@H]2C)[C@]43C)OC1=O [JABOROSALACTONE 45] | > 100 µM | > 100 µM | > 100 µM | > 100 µM | > 100 µM |
| CC1=C(C)C(=O)O[C@]2(C1)O[C@@]1(O)C[C@H]3[C@@H](C[C@H]4O[C@]45CC=CC(=O)[C@]35C)[C@@H]3CC[C@@](O)([C@@H]2C)[C@]31C [JABOROSALACTONE 46] | 2.8 µM | 3.5 µM | 2.5 µM | 2.9 µM | 3.7 µM |
| CC1=C(C)[C@]2(OC1=O)[C@H](O)[C@@H](C)[C@]1(O)CC[C@H]3[C@@H]4CC=C5CC=CC(=O)[C@]5(C)[C@H]4C[C@@]2(O)[C@@]31C [JABOROSALACTONE P] | 35 µM | 49 µM | 29 µM | 33 µM | 61 µM |
| CC1=C(C)C(=O)O[C@@H]([C@H]2CO[C@@]3(O)C[C@H]4[C@@H](C[C@H]5O[C@]56CC=CC(=O)[C@]46C)[C@@H]4CC[C@]2(O)[C@]43C)C1 [JABOROSALACTONE] | 2.9 µM | 3.4 µM | 2.6 µM | 2.8 µM | 4.1 µM |
| CC1=C(C)[C@H]([C@H]2O[C@@]3(O)C[C@H]4[C@@H](C[C@@H](O)[C@@]5(O)CC=CC(=O)[C@]45C)[C@@H]4CC[C@@](O)([C@@H]2C)[C@]43C)OC1=O [JABOROTETROL] | > 100 µM | > 100 µM | > 100 µM | > 100 µM | > 100 µM |
| C[C@@H](C1=CC(=O)[C@H]2[C@@H]3C[C@H]4O[C@]45CC=CC(=O)[C@]5(C)[C@H]3CC[C@]12C)C1C[C@]2(C)O[C@]2(C)[C@H](O)O1 (stereo not given in full) [SALPICHROLIDE D] | 22 µM | 21 µM | 21 µM | 13 µM | 17 µM |
| C[C@@H](c1cc(O)c2c(c1)CC[C@H]1[C@H]2C[C@@H]2O[C@@]23CC=CC(=O)[C@]13C)[C@@H]1C[C@@H]2O[C@@H]2[C@H](O)O1 [SALPICHROLIDE G] | 5.1 µM | 14 µM | 3.4 µM | 5.7 µM | 14 µM |
| CC1=C(C)[C@H]([C@H]2O[C@@]3(O)C[C@H]4[C@@H](C[C@H]5O[C@]56CC=CC(=O)[C@]46C)[C@@H]4CC[C@@](O)([C@@H]2C)[C@]43C)OC1=O [TRECHONOLIDE A] | 3.9 µM | 6.3 µM | 1.9 µM | 3.1 µM | 4.3 µM |
| CC1=C(C)C(=O)O[C@@H]([C@](C)(O)[C@]2(O)CC[C@@]3(O)[C@@H]4C[C@H]5O[C@]56CC=CC(=O)[C@]6(C)[C@H]4CC[C@]23C)C1 [WITHANOLIDE E] | 0.31 µM | 0.24 µM | 0.71 µM | 0.42 µM | 0.16 µM |
